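Five concentrations, 48 hours, 96-well plates. GI50: concentration for 50% inhibition of growth. TGI: total growth inhibition.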
Tests used:
Experiment in all cases: inhibition of tumour cell growth, NCI panel, 48 h
MALME-3M melanoma = tested on: MALME-3M melanoma
SR leukemia = tested on: SR leukemia
UO-31 renal = tested on: UO-31 renal
RXF 393 renal = tested on: RXF 393 renal
M14 melanoma = tested on: M14 melanoma
SK-MEL-5 melanoma = tested on: SK-MEL-5 melanoma
BT-549 breast = tested on: BT-549 breast
SW-620 colon = tested on: SW-620 colon
HT29 colon = tested on: HT29 colon
HL-60(TB) leukemia = tested on: HL-60(TB) leukemia
NCI-H460 lung = tested on: NCI-H460 lung
OVCAR-5 ovarian = tested on: OVCAR-5 ovarian
CAKI-1 renal = tested on: CAKI-1 renal
K-562 leukemia = tested on: K-562 leukemia
UACC-62 melanoma = tested on: UACC-62 melanoma
SK-OV-3 ovarian = tested on: SK-OV-3 ovarian
CCRF-CEM leukemia = tested on: CCRF-CEM leukemia
SN12C renal = tested on: SN12C renal
HCT-15 colon = tested on: HCT-15 colon
MDA-MB-231 breast = tested on: MDA-MB-231 breast
MDA-MB-468 breast = tested on: MDA-MB-468 breast
NCI-H226 lung = tested on: NCI-H226 lung
A498 renal = tested on: A498 renal
LOX IMVI melanoma = tested on: LOX IMVI melanoma
SF-268 CNS = tested on: SF-268 CNS
A549 NSCLC = tested on: A549 NSCLC
786-0 renal = tested on: 786-0 renal
NCI-H23 lung = tested on: NCI-H23 lung
MCF7 breast = tested on: MCF7 breast
OVCAR-4 ovarian = tested on: OVCAR-4 ovarian
ACHN renal = tested on: ACHN renal
UACC-257 melanoma = tested on: UACC-257 melanoma
T-47D breast = tested on: T-47D breast
SF-295 CNS = tested on: SF-295 CNS
RPMI-8226 leukemia = tested on: RPMI-8226 leukemia
SNB-19 CNS = tested on: SNB-19 CNS
TK-10 renal = tested on: TK-10 renal
HS 578T breast = tested on: HS 578T breast
EKVX NSCLC = tested on: EKVX NSCLC
OVCAR-3 ovarian = tested on: OVCAR-3 ovarian
NCI-H522 lung = tested on: NCI-H522 lung
SF-539 CNS = tested on: SF-539 CNS
COLO 205 colon = tested on: COLO 205 colon
IGROV1 ovarian = tested on: IGROV1 ovarian
PC-3 prostate = tested on: PC-3 prostate
OVCAR-8 ovarian = tested on: OVCAR-8 ovarian
SNB-75 CNS = tested on: SNB-75 CNS
HOP-92 NSCLC = tested on: HOP-92 NSCLC
DU-145 prostate = tested on: DU-145 prostate
HOP-62 NSCLC = tested on: HOP-62 NSCLC
U251 CNS = tested on: U251 CNS
MOLT-4 leukemia = tested on: MOLT-4 leukemia
SK-MEL-28 melanoma = tested on: SK-MEL-28 melanoma
SK-MEL-2 melanoma = tested on: SK-MEL-2 melanoma
HCC-2998 colon = tested on: HCC-2998 colon
KM12 colon = tested on: KM12 colon
MDA-MB-435 = tested on: MDA-MB-435

O=C1Nc2cc(Cl)ccc2/C1=C/c1ccc(OCc2ccc(Br)cc2F)cc1 was tested, and the GI50 (MALME-3M melanoma) was 1.82 µM, the TGI (MALME-3M melanoma) was 3.83 µM and the GI50 (SR leukemia) was 2.07 µM. It also gave a TGI (SR leukemia) of 4.45 µM, a GI50 (UO-31 renal) of 1.55 µM and a TGI (UO-31 renal) of 4.65 µM. For the same compound, the GI50 (RXF 393 renal) was 2.73 µM, the TGI (RXF 393 renal) was 9.28 µM and the GI50 (M14 melanoma) was 2.91 µM. It also gave a TGI (M14 melanoma) of 9.02 µM, a GI50 (SK-MEL-5 melanoma) of 3.47 µM and a TGI (SK-MEL-5 melanoma) of 12.3 µM. The GI50 (BT-549 breast) was 1.92 µM, the TGI (BT-549 breast) was 4.26 µM and the GI50 (SW-620 colon) was 2.02 µM. The TGI (SW-620 colon) was 4.18 µM, the GI50 (HT29 colon) was 4.69 µM and the TGI (HT29 colon) was 19.5 µM. The GI50 (HL-60(TB) leukemia) was 17.7 µM, the TGI (HL-60(TB) leukemia) was 53.6 µM and the GI50 (NCI-H460 lung) was 2.02 µM. The TGI (NCI-H460 lung) was 3.74 µM, the GI50 (OVCAR-5 ovarian) was 8.24 µM and the TGI (OVCAR-5 ovarian) was 34.3 µM. For the same compound, the GI50 (CAKI-1 renal) was 1.7 µM, the TGI (CAKI-1 renal) was 3.46 µM and the GI50 (K-562 leukemia) was 4.03 µM. The TGI (K-562 leukemia) was 17 µM, the GI50 (UACC-62 melanoma) was 1.82 µM and the TGI (UACC-62 melanoma) was 3.8 µM. The GI50 (SK-OV-3 ovarian) was 3.81 µM, the TGI (SK-OV-3 ovarian) was 13.5 µM and the GI50 (CCRF-CEM leukemia) was 3.86 µM. The TGI (CCRF-CEM leukemia) was 14.6 µM, the GI50 (SN12C renal) was 5.31 µM and the TGI (SN12C renal) was 19.6 µM. For the same compound, the GI50 (HCT-15 colon) was 3.4 µM, the TGI (HCT-15 colon) was 13 µM and the GI50 (MDA-MB-231 breast) was 2.33 µM. The TGI (MDA-MB-231 breast) was 5.92 µM, the GI50 (MDA-MB-468 breast) was 2.24 µM and the TGI (MDA-MB-468 breast) was 4.65 µM. The GI50 (NCI-H226 lung) was 2.07 µM, the TGI (NCI-H226 lung) was 5.53 µM and the GI50 (A498 renal) was 2.23 µM. For the same compound, the TGI (A498 renal) was 4.59 µM, the GI50 (LOX IMVI melanoma) was 1.73 µM and the TGI (LOX IMVI melanoma) was 3.61 µM. It also gave a GI50 (SF-268 CNS) of 2.67 µM, a TGI (SF-268 CNS) of 6.35 µM and a GI50 (A549 NSCLC) of 2.08 µM. It also gave a TGI (A549 NSCLC) of 4.35 µM, a GI50 (786-0 renal) of 1.9 µM and a TGI (786-0 renal) of 3.5 µM. It also gave a GI50 (NCI-H23 lung) of 1.79 µM, a TGI (NCI-H23 lung) of 4.08 µM and a GI50 (MCF7 breast) of 2.11 µM. The TGI (MCF7 breast) was 14.2 µM, the GI50 (OVCAR-4 ovarian) was 1.9 µM and the TGI (OVCAR-4 ovarian) was 3.98 µM. It also gave a GI50 (ACHN renal) of 1.92 µM, a TGI (ACHN renal) of 3.83 µM and a GI50 (UACC-257 melanoma) of 9.42 µM. For the same compound, the TGI (UACC-257 melanoma) was 26.3 µM, the GI50 (T-47D breast) was 4.19 µM and the TGI (T-47D breast) was 18.3 µM. The GI50 (SF-295 CNS) was 2.07 µM, the TGI (SF-295 CNS) was 4.36 µM and the GI50 (RPMI-8226 leukemia) was 4.41 µM. The TGI (RPMI-8226 leukemia) was 18.1 µM, the GI50 (SNB-19 CNS) was 2.3 µM and the TGI (SNB-19 CNS) was 5.72 µM. For the same compound, the GI50 (TK-10 renal) was 2.73 µM, the TGI (TK-10 renal) was 7.15 µM and the GI50 (HS 578T breast) was 2.05 µM. The TGI (HS 578T breast) was 6.6 µM, the GI50 (EKVX NSCLC) was 3.69 µM and the TGI (EKVX NSCLC) was 17.1 µM. It also gave a GI50 (OVCAR-3 ovarian) of 2.49 µM, a TGI (OVCAR-3 ovarian) of 5.08 µM and a GI50 (NCI-H522 lung) of 1.99 µM. For the same compound, the TGI (NCI-H522 lung) was 4.89 µM, the GI50 (SF-539 CNS) was 1.92 µM and the TGI (SF-539 CNS) was 3.59 µM. For the same compound, the GI50 (COLO 205 colon) was 4.03 µM, the TGI (COLO 205 colon) was 17 µM and the GI50 (IGROV1 ovarian) was 2.43 µM. The TGI (IGROV1 ovarian) was 6.3 µM, the GI50 (PC-3 prostate) was 1.91 µM and the TGI (PC-3 prostate) was 4.46 µM. For the same compound, the GI50 (OVCAR-8 ovarian) was 3.31 µM, the TGI (OVCAR-8 ovarian) was 10.4 µM and the GI50 (SNB-75 CNS) was 2.19 µM. For the same compound, the TGI (SNB-75 CNS) was 7 µM, the GI50 (HOP-92 NSCLC) was 2.28 µM and the TGI (HOP-92 NSCLC) was 6.17 µM. It also gave a GI50 (DU-145 prostate) of 3.39 µM, a TGI (DU-145 prostate) of 10.1 µM and a GI50 (HOP-62 NSCLC) of 1.9 µM. The TGI (HOP-62 NSCLC) was 4.21 µM, the GI50 (U251 CNS) was 1.92 µM and the TGI (U251 CNS) was 3.62 µM. For the same compound, the GI50 (MOLT-4 leukemia) was 3.98 µM, the TGI (MOLT-4 leukemia) was 14.4 µM and the GI50 (SK-MEL-28 melanoma) was 2.18 µM. It also gave a TGI (SK-MEL-28 melanoma) of 4.92 µM, a GI50 (SK-MEL-2 melanoma) of 7.22 µM and a TGI (SK-MEL-2 melanoma) of 21.7 µM. For the same compound, the GI50 (HCC-2998 colon) was 15.4 µM, the TGI (HCC-2998 colon) was 37.7 µM and the GI50 (KM12 colon) was 3.54 µM. The TGI (KM12 colon) was 11.5 µM, the GI50 (MDA-MB-435) was 2.87 µM and the TGI (MDA-MB-435) was 8.54 µM.

— PubChem BioAssay (NCI)
